The target of assay [1] is MCF-7, epithelial (breast cancer).
Method: MCF-7, epithelial (breast cancer), ECACC: 86012803
(§6) Cell line MCF-7 was cultured in incubator under CO2 (6%) at 37° C. in DMEM high glucose (Dulbecco's Modified Eagle Solution, Gibco-BRL 31966-21) medium with 10% fetal bovine serum inactivated (FBS) (Gibco-BRL 10106-169). Cell lines HL-60, RPMI and U266 were cultured in incubator at 37° C. in RPMI-1640 (Sigma R8758) medium with 10% of fetal bovine serum inactivated (FBS) and 2 mM glutamine (Sigma G7513).
(§7) During the amplification step and the assays adherent cells were rinsed with DPBS (Dulbecco's Phosphate Buffered Saline, Sigma D1283) three times and afterward treated for 5 minutes with trypsin ([0.5 g/ml]/EDTA [0.2 g/ml]) (Gibco-BRL, 15400054) in solution of DPBS at 37° C., and, once detached, transferred in the culturing medium. No-adherent cells were centrifuged and transferred in the culturing medium. Cells were counted in a Neubauer chamber after labelling with Tripan-Blue.
(§8) MTT: 1. Stock solution of MTT (475989 Calbiochem) was 5 mg/ml in PBS 1×. As negative control (experiment noise) 3 wells were treated with 20 μl/well of a solution of SDS 10% in H2O. The same control was used for Alamar Blue/Hexosaminidase. 10 μl/well of MTT solution were added and the plate was incubated for 3-4 hr. The medium was discarded and 100 μl of extracting buffer (PBS 1×, 15% SDS, 50% Na N,N-Dimethylformamide, pH 4.7) were added to each well. Plates were incubated for 16h at room temperature under orbital shaking. Absorbance at 570 nm was finally measured.
(§9) Alamar Blue: 10 μl Alamar Blue solution was added to each well and the plates were incubated for 4 in the incubator. Fluorescence ratio at 535/590 (excitation/emission) was measured in Cytofluor (Millipore) fluorimeter. Blank control was determined by lysis of untreated cells with con 2% of Triton X100, right before adding Alamar Blue solution.
(§10) Hexosaminidase activity test: after Alamar Blue lecture, medium was discarded and plates were rinsed once with PBS. 60 μl hexosaminidase substrate (p-nitrophenol-N-acetyl-beta-D-glucosamide 7.5 mM [Sigma N-9376], sodium citrate 0.1 M, pH 5.0, 0.25% Triton X-100) was added to each well and the plates were incubated at 37° C. for 2-5 h, according to the cell type (hexosaminidase activity changes according to the cell type). […] Blank control was the same as described before.
(§11) Data analysis was performed calculating the percentage of cell viability normalized vs. the values of negative control, which was considered equal to 100%. The dose/response curve was fitted through the sigmoidal equation dose-response (variable slope) and the ECK values were calculated as follow:
Assay [2] concerns HL-60, promyeloblast (acute myelocytic leukemia, AML).
Method: HL-60, promyeloblast (acute myelocytic leukemia, AML), ECACC: 98070106
as §6, §7, §8, §9, §10, §11
Assay [3] relates to RPMI, lymphoblast (myeloma).
Method: RPMI, lymphoblast (myeloma), ATCC® CCL155™
Cell lines HL-60, RPMI and U266 were cultured in incubator at 37° C. in RPMI-1640 (Sigma R8758) medium with 10% of fetal bovine serum inactivated (FBS) and 2 mM glutamine (Sigma G7513).
as §7, §8, §9, §10, §11
Assay [4] relates to U266, lymphoblast (myeloma).
Method: U266, lymphoblast (myeloma), ATCC® TIB196™
as §6, §7, §8, §9, §10, §11
Y=Bottom+(Top-Bottom)/(1+10̂{[(LogEC50-X)*HillSlope]},
Assay [5] concerns NCl-H187, epithelial (small cell lung cancer, SCLC). Nature of the assay: Viability assay in NCl-H187. Conditions: H187 cell line, 48-72 h incubation. In kind it is cell-based. The protocol: NCl-H187, epithelial (small cell lung cancer, SCLC), ATCC-CRL-5804
(§1) Cell lines NCl-H82, NCl-H187 were cultured in incubator at 37° C. in RPMI-1640 (Sigma R8758) medium with 10% of fetal bovine serum inactivated (FBS) and 2 mM glutamine (Sigma G7513). Cell line NCl-H510A was cultured in incubator in F12K medium with 10% of fetal bovine serum inactivated (FBS).
(§2) During the amplification step and the assays adherent cells were rinsed with DPBS (Dulbecco's Phosphate Buffered Saline, Sigma D1283) three times and afterward treated for 5 minutes with trypsin ([…]) (Gibco-BRL, 15400054) in solution of DPBS at 37° C., and, once detached, transferred in the culturing medium. […] Cells were counted in a Neubauer chamber after labelling with Tripan-Blue. […]
(§3) Cells were incubated during 48-72 h in incubator under CO2 atmosphere at 37° C. Cell viability was measured by means of MTT (3-(4,5-dimethylthiazol-2-yl)-2,5-diphenyltetrazolium bromide) assay, Alamar Blue® (Biosource DAL1100) and Hexosaminidase activity test, consecutively, following manufacturer instructions.
(§4) MTT: 1. […] Absorbance at 570 nm was finally measured.
(§5) Alamar Blue: 10 μl Alamar Blue solution was added to each well and the plates were incubated for […] in the incubator. Fluorescence ratio at 535/590 (excitation/emission) was measured in Cytofluor (Millipore) fluorimeter. […]

Assay [6] concerns NCl-H82, epithelial (small cell lung cancer, SCLC). Description: Viability assay in NCl-H82. In kind it is cell-based. Conditions: H82 cell line, 48-72 h incubation. The method, then: NCl-H82, epithelial (small cell lung cancer, SCLC), ATCC-CRL-5811
as §1, §2, §3, §4, §5

Assay [7] has as its system NCl-H510A, epithelial (small cell lung cancer, SCLC). Description: Viability assay in NCl-H510A. In kind it is cell-based. Conditions: H510A cell line, 48-72 h incubation. The method, then: NCl-510A, epithelial (small cell lung cancer, SCLC), ATCC-HBT-124
as §1, §2, §3, §4, §5

In another assay the test system is SCLC cell lines. Description: Viability assay, summary over SCLC cell lines. Conditions: summary in words of Table 3. The assay is classed as cell-based. The method, then: MCF-7 and NCl-H187 cells were seeded at a density of 5000 cells/well; NCl-H82 were seeded at a density of 2500 cells/well; HL-60, RPMI, U266 and NCl-H510A at 10000 cells/well in 100 μl of medium in 96 well plates. After 24 h, the compounds to be tested were added to calculate the dose/response curve at the starting concentration of 100 μM with serial dilutions (1:1). Controls are the untreated cells. Each experiment was performed in triplicate.
as §3
Data analysis was performed calculating the percentage of cell viability normalized vs. the values of negative control, which was considered equal to 100%. The dose/response curve was fitted through the sigmoidal equation dose-response (variable slope) and the […] values were calculated as follow: […]

Starred links: 1 amine or outer side, 2 acyl side, 3 side chain; linkers in the order of their positions; H or OH if unused. Positions of bridges follow the written chain, without caps; N, C: chain ends. Non-standard residues stand in square brackets, D forms with d. Residues, ends and D or L forms follow the SMILES beside them. No end group written: not given here. ξ: configuration not given here. ξαMeNle(6-ylidene) = CC(CCCC=[*:3])(N[*:1])C(=O)[*:2]; X1 = CC(CCCCCCC=[*:3])(N[*:1])C(=O)[*:2]; R8 = C=CCCCCCC[C@@](C)(N)C(=O)O; S5 = C=CCCC[C@](C)(N)C(=O)O

The term EC50 denotes the concentration giving half of the maximal effect. Low readings indicate a more potent agent, high ones a less potent agent. Consider “RRRRRRRRKRRNDLRSRFLALRDQ-NH2 [IDP-intwtL05]”, for which the EC50 in assay [1], in assay [2], in assay [3] and in assay [4] was > 100 µM in each case.

In the case of `CC[C@H](C)[C@H](NC(=O)[C@@H](NC(=O)[C@@H](NC(=O)[C@H](CCCCN)NC(=O)[C@@H]1CCCN1C(=O)[C@H](C)N)C(C)C)C(C)C)C(=O)N[C@@H](CC(C)C)C(=O)NC1(C)CCCCCCC=CCCCC(C)(C(=O)N[C@@H](C)C(N)=O)NC(=O)[C@H](CC(C)C)NC(=O)[C@H](Cc2ccc(O)cc2)NC(=O)[C@H](CCC(=O)O)NC(=O)[C@H](CC(C)C)NC(=O)[C@H](C)NC(=O)[C@H](CCCCN)NC1=O` (stereo partly shown) [IDP-LS17, APKVVILXKALEYLXA] (H-APKVVIL[X1]KALEYL[ξαMeNle(6-ylidene)]A-NH2; staple 8-15 (inferred); N-terminus and C-terminus assumed), the EC50 is > 100 µM in assay [1], > 100 µM in assay [2], ~10 µM in assay [3] and ~16 µM in assay [4].

For `CC(C)C[C@@H]1NC(=O)[C@H](C)NC(=O)[C@H](CCCCN)NC(=O)[C@H](CO)NC(=O)[C@H](CC(C)C)NC(=O)C(C)(NC(=O)[C@@H](NC(=O)[C@@H](NC(=O)[C@H](CCCCN)NC(=O)[C@@H]2CCCN2C(=O)[C@H](C)N)C(C)C)C(C)C)CCCCCCC=CCCCC(C)(C(=O)N[C@@H](CC(C)C)C(=O)N[C@@H](CCC(N)=O)C(=O)N[C@@H](C)C(N)=O)NC(=O)[C@H](CCC(=O)O)NC1=O` (stereo partly shown) [IDP-LS16, APKVVXLSKALEXLQA] (H-APKVV[X1]LSKALE[ξαMeNle(6-ylidene)]LQA-NH2; staple 6-13; N-terminus and C-terminus assumed), the EC50 in assay [1] was > 100 µM; in assay [2], > 100 µM; in assay [3], ~15 µM; in assay [4], ~10 µM.

With “RKRRNDLRSRFLALRDQ-NH2 (C-terminus assumed) [IDP-wtL05, Arg-Lys-Arg-Arg-Asn-Asp-Leu-Arg-Ser-Arg-Phe-Leu-Ala-Leu-Arg-Asp-Gln]”, the EC50 was > 100 µM in assay [1], > 100 µM in assay [2], ~10 µM in assay [3] and > 100 µM in assay [4]. Also, the “activity in RPMI cell lines” value in assay [3] (summary in words of Table 2) is recorded as “shows activity”.

For the compound `CC(C)C[C@H](NC(=O)[C@H](C)NC(=O)[C@H](CC(C)C)NC(=O)C1(C)CCCC=CCCCCCCC(C)(NC(=O)[C@H](CCCNC(=N)N)NC(=O)[C@H](CCCCN)NC(=O)[C@@H](N)CCCNC(=N)N)C(=O)N[C@@H](CC(N)=O)C(=O)N[C@@H](CC(=O)O)C(=O)N[C@@H](CC(C)C)C(=O)N[C@@H](CCCNC(=N)N)C(=O)N[C@@H](CO)C(=O)N[C@@H](CCCNC(=N)N)C(=O)N1)C(=O)N[C@@H](CCCNC(=N)N)C(=O)N[C@@H](CC(=O)O)C(=O)N[C@@H](CCC(N)=O)C(N)=O` (stereo partly shown) [IDP-LS05, RKRXNDLRSRXLALRDQ] (H-RKR[X1]NDLRSR[ξαMeNle(6-ylidene)]LALRDQ-NH2; staple 4-11; N-terminus and C-terminus assumed), the EC50 is > 100 µM in assay [1], ~5 µM in assay [2], ~6 µM in assay [3] and > 100 µM in assay [4].

For the compound `CC(C)C[C@@H]1NC(=O)[C@H](C)NC(=O)[C@H](CC(C)C)NC(=O)[C@H](Cc2ccccc2)NC(=O)[C@H](CCCNC(=N)N)NC(=O)[C@H](CO)NC(=O)[C@](C)(NC(=O)[C@H](CC(C)C)NC(=O)[C@H](CC(=O)O)NC(=O)[C@H](CC(N)=O)NC(=O)[C@H](CCCNC(=N)N)NC(=O)[C@H](CCCNC(=N)N)NC(=O)[C@H](CCCCN)NC(=O)[C@@H](N)CCCNC(=N)N)CCCCCCC=CCCC[C@@](C)(C(=O)N[C@@H](CC(=O)O)C(=O)N[C@@H](CCC(N)=O)C(N)=O)NC1=O` [IDP-LS13, RKRRNDLXSRFLALXDQ] (H-RKRRNDL[R8]SRFLAL[S5]DQ-NH2; staple 8-15; N-terminus and C-terminus assumed), the concentration giving a half-maximal response (EC50) in assay [1] is ~10 µM; in assay [2] it was ~7 µM; in assay [3], ~9 µM; in assay [4] it was ~10 µM.

Consider `CC(C)C[C@@H]1NC(=O)[C@H](C)NC(=O)[C@H](CC(C)C)NC(=O)[C@H](Cc2ccccc2)NC(=O)C(C)(NC(=O)[C@H](CO)NC(=O)[C@H](CCCNC(=N)N)NC(=O)[C@H](CC(C)C)NC(=O)[C@H](CC(=O)O)NC(=O)[C@H](CC(N)=O)NC(=O)[C@H](CCCNC(=N)N)NC(=O)[C@H](CCCNC(=N)N)NC(=O)[C@H](CCCCN)NC(=O)[C@@H](N)CCCNC(=N)N)CCCCCCC=CCCCC(C)(C(N)=O)NC(=O)[C@H](CC(=O)O)NC(=O)[C@H](CCCNC(=N)N)NC1=O` (stereo partly shown) [IDP-LS15, RKRRNDLRSXFLALRDX] (H-RKRRNDLRS[X1]FLALRD[ξαMeNle(6-ylidene)]-NH2; staple 10-17 (inferred); N-terminus and C-terminus assumed), for which the EC50 in assay [1] is > 100 µM; in assay [2], > 100 µM; in assay [3], ~7 µM; in assay [4], ~8 µM.

As to “RRRRRRRSKAPKVVILSKALEYLQA-NH2 [IDP-LLCb01]”, the EC50 in assay [5] is ~5 µM; in assay [6], ~2.5 µM; in assay [7] it was ~5 µM. The “anti-cancer activity in SCLC cell lines” value in the assay with SCLC cell lines is reported as “showed anti-cancer activity”.

Consider `CC[C@H](C)[C@H](NC(=O)[C@H](CCCCN)NC(=O)[C@@H](NC(=O)[C@H](CCC(N)=O)NC(=O)[C@@H](N)CCCNC(=N)N)[C@@H](C)CC)C(=O)N[C@@H](Cc1c[nH]c2ccccc12)C(=O)N[C@@H](Cc1ccccc1)C(=O)N[C@@H](CCC(N)=O)C(=O)N[C@@H](CC(N)=O)C(=O)N[C@@H](CCCNC(=N)N)C(=O)N[C@@H](CCCNC(=N)N)C(=O)N[C@@H](CCSC)C(=O)N[C@@H](CCCCN)C(=O)N[C@@H](Cc1c[nH]c2ccccc12)C(=O)N[C@@H](CCCCN)C(=O)N[C@@H](CCCCN)C(=O)N[C@@H](CO)C(=O)N[C@@H](CCCCN)C(=O)N[C@@H](C)C(=O)N1CCC[C@H]1C(=O)N[C@@H](CCCCN)C(=O)N[C@H](C(=O)N[C@H](C(=O)N[C@H](C(=O)N[C@@H](CC(C)C)C(=O)N[C@@H](CO)C(=O)N[C@@H](CCCCN)C(=O)N[C@@H](C)C(=O)N[C@@H](CC(C)C)C(=O)N[C@@H](CCC(=O)O)C(=O)N[C@@H](Cc1ccc(O)cc1)C(=O)N[C@@H](CC(C)C)C(=O)N[C@@H](CCC(N)=O)C(=O)N[C@@H](C)C(N)=O)[C@@H](C)CC)C(C)C)C(C)C` [IDP-LLCb02], for which, in the assay with SCLC cell lines, the “anti-cancer activity in SCLC cell lines” value is on record as “showed anti-cancer activity”.

Source of the values: patent US20200239547A1, “ANTICANCER PEPTIDES” (IDP DISCOVERY PHARMA, S.L., priority 2017, published 2020).
